Test results: patent EP4671239A1, “ARYL SUBSTITUENT-CONTAINING DEGRADATION AGENT FOR CDK12/13, PREPARATION METHOD THEREFOR, AND PHARMACEUTICAL COMPOSITION AND USE THEREOF” (Shanghai Institute of Organic Chemistry, Chinese Academy of …, priority 2023, dated 2024)
Like-named read-outs stand apart in the source and are kept apart here.

How the values were obtained:
CDK12 and CDK13 proteins [1] = experiment: Degradation activity on CDK12/13 in 22RV1 cells (Western Blot); assay type: cell-based; conditions: for induction of degradation of CDK12 and CDK13 proteins: cell line and concentration not given there; for degradation of CDK12 and CDK13 proteins / degradation of CDK12 and CDK13 protein levels in cells / dose dependence of degradation of CDK12 and CDK13 proteins: 22RV1 cells; for degradation of CDK12 and CDK13 proteins: 100 nM, 6 h (FIG. 5); for degradation of CDK12 and CDK13 protein levels in cells: 500 nM, 6 hours, WB (FIG. 4); for dose dependence of degradation of CDK12 and CDK13 proteins: different concentrations, 6 h (FIG. 4B, FIG. 5)
Procedure: Experimental methods: The cell line, 22RV1 cell line was purchased from the American Type Culture Collection (ATCC). Conventional Western Blot was used for detection as follows: 22RV1 cells were seeded in a certain number in a 12-well plate, and cultured overnight in an incubator in an adherent manner. […] The cells were lysed with a lysis buffer, and samples were collected. Then, an appropriate amount of the samples was taken for SDS-PAGE electrophoresis. After electrophoresis, the proteins were transferred to nitrocellulose membranes using a semi-dry electro-transfer system. The nitrocellulose membrane was placed in a blocking solution (5% skim milk powder diluted in TBS containing 0.1% Tween 20) and blocked at room temperature for 2 h. The membranes were then placed in a primary antibody solution (1: 1000 diluted in TBS containing 0.1% Tween 20), respectively, and incubated at 4°C overnight. The cells were washed three times with TBS containing 0.1% Tween 20, each time for 15 min. The membrane was placed in a secondary antibody solution (horseradish peroxidase-labeled goat anti-rabbit IgG, diluted at 1:1000 in TBS containing 0.1% Tween 20) and reacted at room temperature for 1 h. After washing the membrane three times as above, the membrane was developed with ECL plus reagent and photographed using Amersham Imager 600 system.

[2] = test system: prostate cancer VCap cells; experiment: Proliferation-inhibiting activity on VCap cells (CellTiter-Glo); assay type: cell-based; conditions: Homo sapiens; VCap cell line, CellTiter-Glo (FIG. 6)
Procedure: The cell proliferation-inhibiting activity of the compounds was determined using the CellTiter-Glo Luminescent Cell Viability Assay (Promega, Madison, WI). The cells were seeded in a 96-well plate in their respective culture media and incubated at 37°C in a 5% CO2 incubator. After overnight incubation, serial dilutions of the compounds were prepared and added to the 96-well plate. A volume of CellTiter-Glo reagent equal to the volume of the cell culture medium present in each well was added (e.g., 100 microliters of the reagent was added to 100 microliters of the culture medium for the cells in the 96-well plate). The contents were mixed on an orbital shaker for 2 min to induce cell lysis. The 96-well plate was incubated at room temperature for 10 minutes to stabilize a luminescent signal. Luminescence was recorded: the luminescence signal of each well was acquired using an Infinite M1000 Pro plate reader (Tecan, Zürich, Switzerland), and the data were analyzed using GraphPad Prism software (GraphPad Software Inc, La Jolla, CA).

[3] = Pharmacokinetics and bioavailability test in rats (Example 60); assay type: in vivo; conditions: SD rats; for F: bioavailability calculated from AUC; for oral pharmacokinetic properties: summary in words of Tables 2-6; for Cmax / Tmax / clearance / half-life: rat
Procedure: (§1) Pharmacokinetics and bioavailability tests in rats. SD rats were given a single oral (10 mg/kg), intravenous (2.5 mg/kg) and intraperitoneal (10 mg/kg) dose, followed by animal blood sample collection at appropriate time points. Heparin was added for anticoagulation, and the samples were centrifuged at 8000 rpm for 6 min. The supernatant was collected and stored at -20°C for HPLC-MS analysis. The blood samples underwent protein precipitation with acetonitrile at 12 000 rpm * 10 min, and the supernatant was used for HPCL-MS analysis. The data underwent parameter fitting with DAS2.0, to obtain compartmental model and non-compartmental model parameters, respectively. The oral bioavailability of the compounds was calculated based on the area under the plasma concentration-time curve (AUC) data. […] Table 2. Pharmacokinetic experimental results of compounds YJZ9069 and YJZ1102

CDK12 and CDK13 proteins [4] = experiment: Degradation activity on CDK12/13 in MDA-MB-231 cells (Western Blot); assay type: cell-based; conditions: 0.1µM or 0.3µM, 15 h, WB (FIG. 1)
Procedure: Experimental methods: The cell line MDA-MB-231 was purchased from the American Type Culture Collection (ATCC). Conventional Western Blot was used for detection, as follows: MDA-MB-231 cells were seeded at a density of 2 x 10^5/mL in a 12-well plate, with 1 mL per well, and cultured overnight in an incubator in an adherent manner. Then, a certain concentration of compounds was added to act for 15 h. The cells were lysed with a lysis buffer, and protein samples were collected. An appropriate amount of the sample was taken for SDS-PAGE electrophoresis. After electrophoresis, the protein was transferred to a polyvinylidene fluoride (PVDF) membrane using a wet electro-transfer system. The PVDF membrane after electro-transfer was cut into several required strips, which were then placed in a blocking solution (5% skim milk powder diluted in TBS containing 0.1% Tween 20) and blocked at room temperature for 1.5 h. A primary antibody solution was prepared by diluting a primary antibody against the corresponding target protein in TBS containing 0.1% Tween 20 according to the dilution requirements of different antibodies, such as 1:1000 (CST), 1:3000 (Proteintech, Bethyl), and 1:200 (Santacruz). The blocked membrane was placed in the corresponding primary antibody solution and incubated at 4°C for 12-14 h. Then, the cells were washed three times with TBS containing 0.1% Tween 20, each time for 5 min. After washing, the membrane was placed in a secondary antibody solution (horseradish peroxidase-labeled goat anti-rabbit IgG, diluted at 1:2000 in TBS containing 0.1% Tween 20) and reacted at room temperature for 2 h. After washing the membrane three times as above, the membrane was developed with StarSignal plus reagent (GenStar®) and Omni-ECL reagent (Yazyme®), and photographed with Amersham Imager 800 system.

[5] = Pharmacokinetics and bioavailability test in rats (Example 57); assay type: in vivo; conditions: SD rats; for MRT last: read-out: MRT(0-t); for MRT inf: read-out: MRT(0-∞)
Procedure: as §1, with “Table 1.” for “Table 2.”, “of compound zlc-4-93” for “of compounds YJZ9069 and YJZ1102”

[6] = Sprague-Dawley, plasma, IV 2.5 mg/kg
[7] = Sprague-Dawley, plasma, PO 10 mg/kg
[8] = Sprague-Dawley, rat, plasma, iv, i.v. 2.5 mg/kg
[9] = Sprague-Dawley, rat, plasma, Oral 10 mg/kg

## CN1C(=O)CCC(N2C(=O)c3cccc(OCC(=O)N4CCN(c5ccc(N(C(=O)NCc6ccccc6)[C@H]6CC[C@H](Nc7ncc8ccccc8n7)CC6)cc5)CC4)c3C2=O)C1=O (stereo partly drawn) [YJZ1078]
CDK12 and CDK13 proteins [1]
  induction of degradation of CDK12 and CDK13 proteins: cannot effectively induce degradation
[2]
  IC50: > 5000 nM

## O=C1CCC(N2C(=O)c3ccc(N4CCC(CN5CCN(c6ccc(N(C(=O)NCc7ccccc7)[C@H]7CC[C@H](Nc8ncc9ccccc9n8)CC7)cc6)CC5)CC4)cc3C2=O)C(=O)N1 (stereo partly drawn) [YJZ1097, 3-benzyl-1-(4-(4-((1-(2-(2,6-dioxopiperidin-3-yl)-1,3-dioxoisoindole-5-yl)piperidin-4-yl)methyl)piperazin-1-yl)phenyl)-1-((1r,4r)-4-(quinazolin-2-ylamino)cyclohexyl)urea]
[3]; PO 10 mg/kg
  F: 23.89%
[3]
  oral pharmacokinetic properties: excellent
[3]; [6]
  Cmax: 2490 ng/mL
  Tmax: 0.08 h
  clearance: 3.12 mL/min/kg
  half-life: 13.8 h
[3]; [7]
  Cmax: 593 ng/mL
  Tmax: 6.7 h
  half-life: 15.2 h
CDK12 and CDK13 proteins [1]
  degradation of CDK12 and CDK13 proteins: almost completely degrade
  degradation of CDK12 and CDK13 protein levels in cells: effectively degrade
  dose dependence of degradation of CDK12 and CDK13 proteins: dose-dependent manner
[2]
  IC50: 3.93 nM

## O=C1CCC(N2C(=O)c3ccc(N4CC(CN5CCN(c6ccc(N(C(=O)NCc7ccccc7)[C@H]7CC[C@H](Nc8ncc9ccccc9n8)CC7)cc6)CC5)C4)cc3C2=O)C(=O)N1 (stereo partly drawn) [YJZ1102]
[3]; IP 10 mg/kg
  F: 94.15%
[3]; PO 10 mg/kg
  F: 17.28%
[3]
  oral pharmacokinetic properties: excellent
[3]; in vivo, IP 10 mg/kg
  Cmax: 662 ng/mL
  Tmax: 6.67 h
  half-life: 26.4 h
[3]; in vivo, IV 2.5 mg/kg
  Cmax: 2200 ng/mL
  Tmax: 0.08 h
  clearance: 3.32 mL/min/kg
  half-life: 10.7 h
[3]; in vivo, PO 10 mg/kg
  Cmax: 148 ng/mL
  Tmax: 6 h
  half-life: 10.4 h
CDK12 and CDK13 proteins [1]
  degradation of CDK12 and CDK13 protein levels in cells: effectively degrade
[2]
  IC50: 16.3 nM

## O=C1CCC(N2C(=O)c3cc(F)c(N4CCC(N5CCN(c6ccc(N(C(=O)NCc7ccccc7)[C@H]7CC[C@H](Nc8ncc9ccccc9n8)CC7)cn6)CC5)CC4)cc3C2=O)C(=O)N1 (stereo partly drawn) [YJZ1206]
[3]; PO 10 mg/kg
  F: 39.16%
[3]
  oral pharmacokinetic properties: excellent
[3]; [6]
  Cmax: 3120 ng/mL
  Tmax: 0.08 h
  clearance: 4.29 mL/min/kg
  half-life: 5.15 h
[3]; [7]
  Cmax: 1130 ng/mL
  Tmax: 6 h
  half-life: 6.24 h
CDK12 and CDK13 proteins [1]
  degradation of CDK12 and CDK13 proteins: almost completely degrade
  degradation of CDK12 and CDK13 protein levels in cells: effectively degrade
  dose dependence of degradation of CDK12 and CDK13 proteins: dose-dependent manner

## O=C1CCC(N2C(=O)c3cccc(NCCCCCCCCCC(=O)N4CCN(c5cccc(N(C(=O)NCc6ccccc6)[C@H]6CC[C@H](Nc7ncc8ccccc8n7)CC6)c5)CC4)c3C2=O)C(=O)N1 (stereo partly drawn) [YJZ9055]
CDK12 and CDK13 proteins [1]
  induction of degradation of CDK12 and CDK13 proteins: cannot effectively induce degradation
[2]
  IC50: 2200 nM

## N#Cc1ccc(N[C@H]2CC[C@H](N(C(=O)NCc3ccccc3)c3ccc(N4CCN(C[C@@H]5CCN(c6ccc7c(c6)C(=O)N(C6CCC(=O)NC6=O)C7=O)C5)CC4)cc3)CC2)nc1 (stereo partly drawn) [ZLC5-106]
CDK12 and CDK13 proteins [4]
  degradation of CDK12 and CDK13 protein levels in cells: effectively degrade

## N#Cc1ccc(N[C@H]2CC[C@H](N(C(=O)NCc3ccccc3)c3ccc(N4CCC(CN5CC6(C5)CN(c5ccc7c(c5)C(=O)N(C5CCC(=O)NC5=O)C7=O)C6)CC4)cc3)CC2)nc1 (stereo partly drawn) [ZLC6-37]
CDK12 and CDK13 proteins [4]
  degradation of CDK12 and CDK13 protein levels in cells: effectively degrade

## N#Cc1ccc(N[C@H]2CC[C@H](N(C(=O)NCc3ccccc3)c3ccc(N4CCC(CN5CCN(c6ccc7c(c6)C(=O)N(C6CCC(=O)NC6=O)C7=O)CC5)CC4)cc3)CC2)nc1 (stereo partly drawn) [ZLC6-42]
CDK12 and CDK13 proteins [4]
  degradation of CDK12 and CDK13 protein levels in cells: effectively degrade

## N#Cc1ccc(N[C@H]2CC[C@H](N(C(=O)NCc3ccccc3)c3ccc(N4CCC5(CC4)CN(c4ccc6c(c4)C(=O)N(C4CCC(=O)NC4=O)C6=O)C5)cc3)CC2)nc1 (stereo partly drawn) [ZLC6-103]
CDK12 and CDK13 proteins [4]
  degradation of CDK12 and CDK13 protein levels in cells: effectively degrade

## N#Cc1ccc(N[C@H]2CC[C@H](N(C(=O)NCc3ccccc3)c3ccc(N4CCN(CC5CN(c6cc7c(cc6F)C(=O)N(C6CCC(=O)NC6=O)C7=O)C5)CC4)cc3)CC2)nc1 (stereo partly drawn) [ZLC7-36]
CDK12 and CDK13 proteins [4]
  degradation of CDK12 and CDK13 protein levels in cells: effectively degrade

## N#Cc1ccc(N[C@H]2CC[C@H](N(C(=O)NCc3ccccc3)c3ccc(N4CCN(C5CCN(c6ccc7c(c6)C(=O)N(C6CCC(=O)NC6=O)C7=O)CC5)CC4)cc3)CC2)nc1 (stereo partly drawn) [zlc-4-93]
[5]; Oral 10 mg/kg, bioavailability calculated from AUC
  F: 16.46%
[5]; summary in words of Table 1
  oral pharmacokinetic properties: excellent
[5]; [8]
  AUC(0-inf): 4740 ng·h/mL
  AUC(0-t): 4720 ng·h/mL
  Cmax: 2590 ng/mL
  Tmax: 0.08 h
  clearance: 9.85 mL/min/kg
  half-life: 2.38 h
  MRT last: 2.37 h
  MRT inf: 2.44 h
[5]; [9]
  AUC(0-inf): 3130 ng·h/mL
  AUC(0-t): 3110 ng·h/mL
  Cmax: 308 ng/mL
  Tmax: 4 h
  half-life: 3.04 h
  MRT last: 6.06 h
  MRT inf: 6.19 h
